2 molecules from patent US20220041627A1, “PRODRUGS OF ANTI-CANCER AND ANTI-AUTOIMMUNE DISEASES THERAPEUTIC AGENTS, AND METHODS OF MAKING AND USE THEREOF” (UNIVERSITY OF MARYLAND, BALTIMORE, priority 2018, published 2022) can be followed below.

Like-named read-outs stand apart in the source and are kept apart here.

One data set concerns IGROV1. The experiment in a line: NCI-60 growth inhibition, IGROV1. It counts as cell-based, human. From the text:
(§1) The anticancer effects of compounds 1a-1b against 60 human cancer cell lines (the Developmental Therapeutics Program of NCI) were studied. The cell lines were derived from different cancer types including leukemia, non-small-cell lung cancer, colon cancer, CNS cancer, melanoma, ovarian cancer, renal cancer, prostate cancer, and breast cancer (Table 1; the assay protocol can be found at: https://dtp.cancer.gov/default.htm). Compound 1a caused over 50% growth inhibition for most tested cell lines. […] Without wishing to be bound by any particular theory, it is believed that the differences in the anticancer effects between compounds 1a and 1b may be due to the more favorable cell membrane permeability of the boronic ester 1a.

The test system of the next data set is HT29. The experiment in a line: NCI-60 growth inhibition, HT29. It counts as cell-based, human.
Text: as §1

The test system of the next data set is OVCAR-3. The experiment in a line: NCI-60 growth inhibition, OVCAR-3. It counts as cell-based, human.
Text: as §1

In the next data set the test system is HS 578T. Put plainly: NCI-60 growth inhibition, HS 578T. It counts as cell-based, human. Particulars: Breast Cancer HS 578T, 48 h.
Text: as §1

The test system of another data set is OVCAR-5. The experiment in a line: NCI-60 growth inhibition, OVCAR-5. It counts as cell-based, human.
Text: as §1

The test system of data set [1] is MCF7 cells pretreated with the ROS scavenger N-Acetyl-Cysteine (NAC). Put plainly: Cell viability of MCF7 cells pretreated with ROS scavenger NAC. Particulars: 10 mM NAC, pre-incubation 2 hours. It counts as cell-based, human. On the procedure:
FIG. 3 illustrates the effect of ROS on the activation of 1a-b. Cell viability assay of MCF7 cancer cells treated with varying concentrations of 1a-b in the presence of 10 mM NAC. Pre-incubation with this ROS scavenger was carried out for 2 hours. Data are presented as mean SD, n=4.
Cell Counting Kit-8 (CCK8, Dojingo) was used to carry out the cytotoxicity assessment of the prodrugs. Seeded cells were treated with varying compound concentrations for 48-72 h and the CCK8 kit was used to measure the cytotoxicity. For NAC experiments, this ROS scavenger was pre-incubated with the cells for 2 h and then co-incubated with the prodrugs for additional 48 hours unless otherwise noted.
The anticancer effects of new compounds 1a and 1b were tested using the breast cancer MCF7 cells and normal MEC1 cells (FIGS. 2A and 2B). […] These differential killing results highlight the specificity of new prodrugs 1a-1b for cancer cells over normal cells. […] To further verify the role of ROS in the drug release process, the MTT assays was performed, using MCF7 cells pretreated with the ROS scavenger N-Acetyl-Cysteine (NAC).

In another data set the test system is SF-295. The experiment in a line: NCI-60 growth inhibition, SF-295. It counts as cell-based, human.
Text: as §1

A further data set concerns HCT-116. Put plainly: NCI-60 growth inhibition, HCT-116. It counts as cell-based, human.
Text: as §1

A further data set has as its system SF-268. The experiment in a line: NCI-60 growth inhibition, SF-268. It counts as cell-based, human.
Text: as §1

Another data set relates to SR. The experiment in a line: NCI-60 growth inhibition, SR. It counts as cell-based, human. Particulars: Leukemia SR, 48 h.
Text: as §1

The test system of the next data set is U251. The experiment in a line: NCI-60 growth inhibition, U251. It counts as cell-based, human.
Text: as §1

The subject of data set [2] is 60 human cancer cell lines. The experiment in a line: NCI-60 cellular antitumor activity profiling, panel summary. It counts as cell-based. The conditions noted are these: 48 h; for inhibition at 50 µM: Homo sapiens.
Text: as §1

The subject of a further data set is SK-MEL-2. The experiment in a line: NCI-60 growth inhibition, SK-MEL-2. It counts as cell-based, human.
Text: as §1

The next data set concerns A498. The experiment in a line: NCI-60 growth inhibition, A498. It counts as cell-based, human.
Text: as §1

A further data set deals with HCT-15. The experiment in a line: NCI-60 growth inhibition, HCT-15. It counts as cell-based, human.
Text: as §1

The test system of another data set is A549/ATCC. Put plainly: NCI-60 growth inhibition, A549/ATCC. It counts as cell-based, human. The conditions noted are these: Non-Small Cell lung Cancer A549/ATCC, 48 h.
Text: as §1

Another data set concerns HOP-62. Put plainly: NCI-60 growth inhibition, HOP-62. It counts as cell-based, human.
Text: as §1

Data set [3] is described as follows: 5-FU release study with H2O2 (LC/MS). It counts as physicochemical. The conditions noted are these: for activation by H2O2 to release 5-FU: prodrug 100 μM, H2O2 5 equiv, 30% DMSO in PBS, 37° C., RP-UPLC-MS. On the procedure: FIGS. 1A and 1B illustrate the release of 5-FU from compounds 1a-1b. Incubation of prodrugs 1a-1b (100 μM) was carried out in the presence of 5 equivalent of H2O2: (FIG. 1A) compound 1a and (FIG. 1B) compound 1b. The conversion of prodrugs 1a-1b and release of 5-FU was monitored. The data represent mean±SD of triplicates.
Release of 5-FU from the prodrugs was performed at 37° C. in 30% DMSO/Phosphate Buffered saline (PBS). The compounds were co-incubated at 100 μM together with hydrogen peroxide (H2O2) in triplicates. At each time point, aliquots were taken from the solution and diluted in acetonitrile for quantitation in the LC/MS. LC/MS Analysis: samples were analyzed using Xevo TQ-XS Triple Quadrupole Mass Spectrometry (Waters Corp, Milford, Mass.). The column used was a Cortecs C18+2.7 μm 2.1×75 mm column. A 3-min gradient elution with 0.5 mL/min flow rate was used for the samples. Running gradient: 95% mobile phase A over 1.2 min, 95% mobile phase B over 1.2 min, and 95% A 0.6 min, with elution at 1.64 min for the compounds. The ion transitions monitored for the compounds were 5-FU (129.0>40.1) 1a (345.2>86.0), and 1b (263.1>176.1).
Compounds 1a-1b were incubated in a mixture of DMSO in PBS (30%) with the addition of H2O2 (5 equiv) at 37° C. The conversion of prodrugs 1a-1b and the production of 5-FU were followed using RP-UPLC-MS.

A further data set relates to 786-0. The experiment in a line: NCI-60 growth inhibition, 786-0. It counts as cell-based, human.
Text: as §1

Another data set has as its system UO-31. Put plainly: NCI-60 growth inhibition, UO-31. It counts as cell-based, human.
Text: as §1

By inhibition is commonly meant the percentage by which the read-out fell short of the control.

As for `O=c1[nH]c(=O)n(Cc2ccc(B(O)O)cc2)cc1F` [Compound 1b, (4-((5-Fluoro-2,4-dioxo-3,4-dihydropyrimidin-I(2H)-yl)methyl)phenyl)boronic acid], the “Growth Inhibition (%)” value was determined as 15% in the data set with IGROV1 (Ovarian Cancer IGROV1, 50 μM, 48 h); 12% in the data set with HT29 (Colon Cancer HT29, 50 μM, 48 h); 30% in the data set on OVCAR-3 (Ovarian Cancer OVCAR-3, 50 μM, 48 h); 26% in the data set on HS 578T (50 μM); 19% with OVCAR-5 (Ovarian Cancer OVCAR-5, 50 μM, 48 h); 5% in the data set on SF-295 (CNS Cancer SF-295, 50 μM, 48 h). Also, the “Growth Inhibition (%)” value in the data set with HCT-116 (Colon Cancer HCT-116, 50 μM, 48 h) stood at 18%; in the data set with SF-268 (CNS Cancer SF-268, 50 μM, 48 h) it was 14%; in the data set with SR (50 μM) it was 16%; in the data set on U251 (CNS Cancer U251, 50 μM, 48 h), 4%; with SK-MEL-2 (Melanoma SK-MEL-2, 50 μM, 48 h), 7%; in the data set on A498 (Renal Cancer A498, 50 μM, 48 h), 31%. In addition, the “Growth Inhibition (%)” value in the data set with HCT-15 (Colon Cancer HCT-15, 50 μM, 48 h) turned out to be 10%; with A549/ATCC (50 μM), 4%; in the data set on HOP-62 (Non-Small Cell lung Cancer HOP-62, 50 μM, 48 h), 10%; in the data set on 786-0 (Renal Cancer 786-0, 50 μM, 48 h), 6%; with UO-31 (Renal Cancer UO-31, 50 μM, 48 h) it was 27%. The “anticancer effects upon pretreatment of NAC” value in [1] is on record as “decreased significantly”. For the same molecule, in data set [2] (most cell lines of the NCI-60 panel, 50 μM), the “growth inhibition for most tested cell lines” value is listed as “less than 50%”. In [3], the “activation by H2O2 to release 5-FU” value is “activated efficiently”.
As to `CC1(C)OB(c2ccc(Cn3cc(F)c(=O)[nH]c3=O)cc2)OC1(C)C` [Compound 1a, 5-Fluoro-1-(4-(4,4,5,5-tetramethyl-1,3,2-dioxaborolan-2-yl)benzyl)pyrimidine-2,4(1H,3H)-dione], the inhibition at 50 µM in the data set with IGROV1 (Homo sapiens, IGROV-1, Ovarian Cancer IGROV1, 48 h) was determined as 56%; in the data set with HT29 (Homo sapiens, HT-29, Colon Cancer HT29, 48 h), 76%; in the data set on OVCAR-3 (Homo sapiens, Ovarian Cancer OVCAR-3, 48 h) it was 95%; in the data set with HS 578T (Homo sapiens), 63%; with OVCAR-5 (Homo sapiens, Ovarian Cancer OVCAR-5, 48 h), 30%; in the data set on SF-295 (Homo sapiens, CNS Cancer SF-295, 48 h) it was 14%. In addition, the inhibition at 50 µM was 71% in the data set with HCT-116 (Homo sapiens, Colon Cancer HCT-116, 48 h); 31% with SF-268 (Homo sapiens, CNS Cancer SF-268, 48 h); 60% with SR (Homo sapiens); 17% with U251 (Homo sapiens, U-251, CNS Cancer U251, 48 h); 81 to 96% in data set [2] (lung cancer NCI-H522, melanoma MDA-MB-435, ovarian cancer OVCAR-3, breast cancer MCF7 and MDA-MB-468 cells, read-out: most significant inhibition); above 50% in data set [2] (most cell lines of the NCI-60 panel, read-out: growth inhibition for most tested cell lines). Also, the inhibition at 50 µM is 59% with SK-MEL-2 (Homo sapiens, Melanoma SK-MEL-2, 48 h); 74% with A498 (Homo sapiens, Renal Cancer A498, 48 h); 32% in the data set on HCT-15 (Homo sapiens, Colon Cancer HCT-15, 48 h); 24% in the data set with A549/ATCC (Homo sapiens); 36% in the data set with HOP-62 (Homo sapiens, Non-Small Cell lung Cancer HOP-62, 48 h); 19% in the data set on 786-0 (Homo sapiens, Renal Cancer 786-0, 48 h). Besides, at 50 µM the inhibition in the data set with UO-31 (Homo sapiens, Renal Cancer UO-31, 48 h) was 27%. For the same molecule, the “anticancer effects upon pretreatment of NAC” value in [1] is given as “decreased significantly”. Besides, the “activation by H2O2 to release 5-FU” value in [3] was “activated efficiently”. For the same molecule, in data set [3] (under the release assay conditions (30% DMSO in PBS, H2O2 5 equiv, 37° C.)), the “hydrolysis of boronic ester to boronic acid 1b” value was “hydrolyzes rapidly”.
